“Also recorded” adds a separate entry of the source.
What was measured:
[1] = tested on: primary mouse hepatocytes (PMH); experiment: Growth of primary mouse hepatocytes, one-hour treatment; type: cell-based; conditions: as high as 320 µM
[2] = tested on: GES-1; experiment: Growth inhibitory effect, one hour exposure (IncuCyte Zoom); type: cell-based, human; conditions: GES-1, immortalized gastric epithelium
[3] = tested on: PKA; experiment: Measurement of PKA activity in HepG2 cells; type: cell-based, human
[4] = tested on: serum starved HepG2 cells; type: cell-based, human
[5] = tested on: SF-539; experiment: Growth inhibitory effect, one hour exposure (IncuCyte Zoom); type: cell-based, human; conditions: SF-539, CNS
Protocol: (§1) Cancer cell lines and immortalized human cell lines were cultured in 1640 tissue culture medium (Corning, USA) with 10% fetal bovine serum in a standard tissue culture condition of 37° C. and 5% CO2.
(§2) For primary hepatocytes, the seeded cells were monitored for up to 48 hours either without any treatment (as a control) or with various types of treatments. For primary keratinocytes, cells in 48-well plates were monitored either without any treatment or with various types of treatment for up to 96 hours. For HepG2, cells 96-well plates were monitored either without any treatment or with various types of treatments for up to 48 hours. The IncuCyte Zoom was set to take a set of images at fixed locations (4 per well for 96-well plates and 16 per well for 48-well plates and 12-well plates) every three hours.
(§3) The one-hour exposure is intended to simulate the transient high concentrations within the liver as the results of either the first pass effects of some orally administered drugs, or of locally delivered drugs, anticipating that such a short term exposure is nevertheless sufficient to affect certain cell surface receptors without causing any significant off-target effects due to intracellular absorption. Such a strategy would also reduce false hits due to reversible cell cycle arrests.
(§4) To address this possibility, we investigated whether other cell lines, including other HCC cell lines, cell lines from other type of cancers, as well as non-cancer immortalized/transformed cell lines, were also sensitive to Triptonide. Specifically, a total of 51 human cancer cell lines, representing 10 types of human cancers (6 non-small cell lung cancer cell lines, 5 colon cancer cell lines, 5 central nerve system cancer cell lines, 8 Melanomas cell lines, 4 ovarian cancer cell lines, 4 renal cancer cell lines, 2 prostate cancer cell lines, 3 breast cancer cell lines, 7 hepatocellular carcinoma cell lines, and 4 gastric cancer cell lines) were analyzed.

[6] = tested on: SW-620; experiment: as above; type: cell-based, human; conditions: SW-620, Colon
Protocol: as §1, §2, §3, §4

[7] = tested on: HS 578T; experiment: as above; type: cell-based, human; conditions: Breast
Protocol: as §1, §2, §3, §4

[8] = tested on: HCC-2998; experiment: as above; type: cell-based, human; conditions: HCC-2998, Colon
Protocol: as §1, §2, §3, §4

[9] = tested on: U251; experiment: as above; type: cell-based, human; conditions: U251, CNS
Protocol: as §1, §2, §3, §4

[10] = tested on: MALME-3M; experiment: as above; type: cell-based, human; conditions: Melanoma
Protocol: as §1, §2, §3, §4

[11] = tested on: cAMP; experiment: Measurement of cAMP levels in HepG2 cells; type: cell-based, human
[12] = tested on: HepG2-GFP orthotopic xenograft tumor
[13] = tested on: mimosine-treated HepG2 cells; experiment: One-hour treatment of mimosine-treated HepG2 cells, live cell imaging; type: cell-based, human
[14] = tested on: phosphorylated histone H3 (p-H3); experiment: Histone H3 phosphorylation in HepG2 cells (Western blot); type: cell-based, human; conditions: 1 µM for 1 hour, 2 hours after mimosine release; monitored to hour 12
Protocol: HepG2 cells were synchronized by mimosine for 28 hours and released into regular culture medium for 2 hours. […] After the treatment, cells were incubated in the regular culture condition and samples were harvested every hour from 2 to 12 hours (shown on top of the top panel). Western blots were performed to determine the relative levels of phosphorylated histone H3 (p-H3), CDK1 and beta actin (ATCB) (as controls).
After treatments, cells were harvested and protein extracts were prepared by lysis in RIPA buffer (Solarbio). Western blots were performed using specific antibodies and SuperSignal® West Pico Chemiluminescent Substrate (Pierce). Antibodies were purchased from commercial venders as described below: polyclonal rabbit anti-PAR2 antibodies (ABGENT), polyclonal rabbit anti-Beta-Actin antibodies (Cell Signaling Technology), anti-ERK (Cell Signaling Technology), anti-phosphorylated ERK (Cell Signaling Technology), anti-phosphorylated histone H3 (Abchem), anti-CDK1 (Abcam).
After the Triptonide treatments, cells were returned to regular culture condition and samples were harvested at various time points for Western blot analysis.

[15] = tested on: Par2 knockout keratinocytes; experiment: Growth of Par2 knockout primary keratinocytes, one hour treatment; type: cell-based, mouse; conditions: one hour treatment

CC(C)[C@]12O[C@H]1[C@@H]1O[C@@]13[C@@]1(C)CCC4=C(COC4=O)[C@@H]1C[C@@H]1O[C@@]13C2=O [Triptonide]
growth inhibitory effect on PMHs [1]: no significant growth inhibitory effect | IC50 [2]: 16.7 µM | levels of PKA activities, acute ([3]; 1 µM, serum free, first 30 minutes after treatment): two-wave elevation | level of PKA activity around G2/M transition ([3]; one-hour treatment in regular medium (Trypsin 50 nM, Triptonide 1 µM), hour 9 and 10 after mimosine): remained largely unchanged | cells exhibiting the features of mitotic catastrophe [4]: approximately 60% | effect on growth of serum starved HepG2 cells [4]: no significant impacts; also recorded: growth inhibitory only when it was administered at the 0 and 2 hours after the starvation | IC50 [5]: 1.14 µM | IC50 [6]: 11.6 µM | IC50 [7]: 1.86 µM | IC50 [8]: 2.77 µM | IC50 [9]: 43.2 µM | IC50 [10]: 3.44 µM | amplitude of cAMP elevation versus control ([11]; 1 µM at 2 hours after mimosine treatment, serum-free): about 4 folds | levels of cAMP ([11]; 1 µM at non-sensitive time, 4 hours after mimosine treatment): modest elevation | levels of cAMP ([11]; treatment 2 hours after mimosine, Trypsin 50 nM, Triptonide 1 µM, serum-free): two waves of elevation | average body weight of the animals ([12]; 25 mg/kg by gavage every other day): did not have any significant impact | tumor specific signals during follow-up ([12]; remaining mice, another four months without further treatments): No tumor specific signals were ever detected again | autopsy for tumors ([12]; six of the treated mice): did not reveal any signs of tumors | effect of treatment applied at hour 0 after release [13]: became static, but no significant accumulation of mitotic catastrophe cells | sensitivity to mitotic catastrophe-inducing effect by time of treatment [13]: only sensitive when the treatment was applied at 2 hours | level of histone H3 phosphorylation [14]: remained very low | effect on growth of Par2 knockout keratinocytes ([15]; 100 and 200 µM): growth inhibitory effects | IC50 ([15]; Par2 knockout keratinocytes): 25.7 µM | effect on growth of Par2 knockout keratinocytes ([15]; concentrations up to 26 µM): did not cause significant growth inhibition

— patent publication US20230125429A1 (priority 2017, published 2023)
